# Source: ChEMBL document CHEMBL1240508, “Design and synthesis of Hsp90 inhibitors: exploring the SAR of Sansalvamide A derivatives” (Bioorg Med Chem, 2010)
# Activity calls are given as the source filed them. The calls are words filed in the database; no cut-off is given here. Non-standard residues stand in square brackets, D forms with d. Residues, ends and D or L forms follow the SMILES beside them. *: point of attachment. dNMeF = CN[C@H](Cc1ccccc1)C(=O)O; Cha = N[C@@H](CC1CCCCC1)C(=O)O; NMeK = CN[C@@H](CCCCN)C(=O)O; Boc = CC(C)(C)OC(=O)*; Bn = c1ccc(C*)cc1
# Tests used:
# HCT-116 [1] = experiment: Cytotoxicity against human HCT116 cells at 10 uM after 72 hrs by [3H]thymidine incorporation assay; conditions: read-out: GI
# [2] = Efflux ratio of permeability in human Caco-2 cells; assay type: ADME, cell-based
# [3] = Solubility of the compound; assay type: physicochemical
# HCT-116 [4] = experiment: Cytotoxicity against human HCT116 cells after 72 hrs by [3H]thymidine incorporation assay
# [5] = Chemical stability of the compound assessed as half life; assay type: physicochemical
# [6] = Inhibition of Hsp90 assessed as Her2 interaction at up to 11 uM by Western blotting
# [7] = Inhibition of Hsp90 assessed as IP6K2 interaction at up to 11 uM by Western blotting
compound,measurement,setting,value
CC(C)C[C@@H]1NC(=O)[C@H](CC(C)C)NC(=O)[C@H](C(C)C)NC(=O)[C@@H](Cc2ccccc2)NC(=O)[C@H](Cc2ccccc2)NC1=O,inhibition of growth at 10 µM,HCT-116 [1],21%
CC(C)C[C@@H]1NC(=O)[C@H](CC(C)C)NC(=O)[C@H](C(C)C)NC(=O)[C@H](CC(C)C)NC(=O)[C@@H](Cc2c[nH]c3ccccc23)NC1=O,inhibition of growth at 10 µM,HCT-116 [1],30%
CC(C)C[C@@H]1NC(=O)[C@H](Cc2ccccc2)NC(=O)[C@@H](CC(C)C)N(C)C(=O)[C@H](CC(C)C)NC(=O)[C@H](C(C)C)NC1=O,inhibition of growth at 10 µM,HCT-116 [1],32%
CC(C)C[C@@H]1NC(=O)[C@@H]([C@H](OCc2ccccc2)c2ccccc2)NC(=O)[C@@H](Cc2ccccc2)NC(=O)[C@@H](CC(C)C)NC(=O)[C@H](C(C)C)N(C)C1=O,efflux ratio,[2],3
same,inhibition of growth at 10 µM,HCT-116 [1],94%
same,solubility,[3],7 µM
same,IC50,HCT-116 [4],3.2 µM
same,half-life,[5],> 2.87 h
CC(C)C[C@@H]1NC(=O)[C@H](Cc2ccccc2)NC(=O)[C@@H](Cc2ccccc2)NC(=O)[C@@H](CCCCNC(=O)OCc2ccccc2)NC(=O)[C@H](C(C)C)N(C)C1=O,inhibition of growth at 10 µM,HCT-116 [1],36%
CC(C)C[C@@H]1NC(=O)[C@H](Cc2ccccc2)NC(=O)[C@H](CCCCNC(=O)OC(C)(C)C)NC(=O)[C@H](CC(C)C)NC(=O)[C@@H](C(C)C)NC1=O,inhibition of growth at 10 µM,HCT-116 [1],9%
CC(C)C[C@@H]1NC(=O)[C@H](Cc2ccccc2)NC(=O)[C@H](CCCCN)N(C)C(=O)[C@H](CC(C)C)NC(=O)[C@H](C(C)C)NC1=O (cyclo(FLVL[NMeK])),inhibition of growth at 10 µM,HCT-116 [1],0%
CC(C)C[C@@H]1NC(=O)[C@H](CC(C)C)NC(=O)[C@@H](C(C)C)NC(=O)[C@H](CC(C)C)NC(=O)[C@H](Cc2ccccc2)NC1=O,inhibition of growth at 10 µM,HCT-116 [1],8%
CC(C)C[C@@H]1NC(=O)[C@H](CC(C)C)NC(=O)[C@H](C(C)C)NC(=O)[C@@H](CC(C)C)NC(=O)[C@@H](Cc2ccccc2)NC1=O,inhibition of growth at 10 µM,HCT-116 [1],14%
CC(C)C[C@@H]1NC(=O)[C@H](CC(C)C)NC(=O)[C@@H](C(C)C)NC(=O)[C@@H](Cc2ccccc2)NC(=O)[C@H](Cc2ccccc2)NC1=O,inhibition of growth at 10 µM,HCT-116 [1],4%
CC(C)C[C@@H]1NC(=O)[C@H](Cc2ccccc2)NC(=O)[C@H](CCCCNC(=O)OC(C)(C)C)NC(=O)[C@H](CC(C)C)NC(=O)[C@H](C(C)C)NC1=O,inhibition of growth at 10 µM,HCT-116 [1],0%
CC(C)C[C@@H]1NC(=O)[C@H](Cc2ccccc2)NC(=O)[C@H](CC(C)C)N(C)C(=O)[C@H](CC(C)C)NC(=O)[C@H](C(C)C)NC1=O,inhibition of growth at 10 µM,HCT-116 [1],35%
CC(C)C[C@@H]1NC(=O)[C@H](Cc2ccccc2)NC(=O)[C@H](CCCCN)NC(=O)[C@H](CC(C)C)NC(=O)[C@H](C(C)C)NC1=O (cyclo(FLVLK)),inhibition of growth at 10 µM,HCT-116 [1],0%
CC(C)C[C@@H]1NC(=O)[C@H](Cc2ccccc2)NC(=O)[C@@H](CC(C)C)NC(=O)[C@@H](CC(C)C)NC(=O)[C@H](C(C)C)NC1=O,inhibition of growth at 10 µM,HCT-116 [1],20%
CC(C)[C@H]1NC(=O)[C@@H](Cc2ccccc2)NC(=O)[C@H](Cc2ccccc2)NC(=O)[C@H](COCc2ccccc2)NC(=O)[C@H](CC2CCCCC2)NC1=O (cyclo([Cha]S(Bn)F[dF][dV])),inhibition of growth at 10 µM,HCT-116 [1],10%
same,inhibition,[6],inactive
same,inhibition,[7],inactive
CC(C)C[C@@H]1NC(=O)[C@@H](Cc2ccccc2)NC(=O)[C@@H](Cc2ccccc2)NC(=O)[C@@H](CC(C)C)N(C)C(=O)[C@H](C(C)C)N(C)C1=O,inhibition of growth at 10 µM,HCT-116 [1],15%
CC(C)C[C@@H]1NC(=O)[C@@H]([C@@H](OCc2ccccc2)c2ccccc2)NC(=O)[C@@H](Cc2ccccc2)NC(=O)[C@@H](CC(C)C)NC(=O)[C@H](C(C)C)N(C)C1=O (mixture of isomers),inhibition of growth at 10 µM,HCT-116 [1],63%
same,IC50,HCT-116 [4],8.9 µM
CC(C)[C@H]1NC(=O)[C@@H](Cc2ccccc2)N(C)C(=O)[C@H](Cc2ccccc2)NC(=O)[C@H](CO)NC(=O)[C@H](CC2CCCCC2)NC1=O,inhibition of growth at 10 µM,HCT-116 [1],18%
CC(C)C[C@@H]1NC(=O)[C@H](Cc2ccccc2)NC(=O)[C@H](CCCCN)NC(=O)[C@H](CC(C)C)NC(=O)[C@@H](C(C)C)NC1=O (cyclo(FL[dV]LK)),inhibition of growth at 10 µM,HCT-116 [1],0%
CC(C)C[C@@H]1NC(=O)[C@H](CC(C)C)NC(=O)[C@H](C(C)C)NC(=O)[C@H](CC(C)C)NC(=O)[C@@H](Cc2ccc(O)cc2)NC1=O,inhibition of growth at 10 µM,HCT-116 [1],50%
CC(C)C[C@@H]1NC(=O)[C@@H](C(C)C)NC(=O)[C@@H](CC(C)C)NC(=O)[C@H](Cc2ccccc2)N(C)C(=O)[C@H](CC(C)C)NC1=O,inhibition of growth at 10 µM,HCT-116 [1],30%
CC(C)C[C@@H]1NC(=O)[C@@H](Cc2ccccc2)NC(=O)[C@@H](CC(C)C)NC(=O)[C@H](CC(C)C)N(C)C(=O)[C@H](C(C)C)NC1=O,inhibition of growth at 10 µM,HCT-116 [1],18%
CC(C)C[C@@H]1NC(=O)[C@H](Cc2ccccc2)NC(=O)[C@H](CCCCNC(=O)OC(C)(C)C)N(C)C(=O)[C@H](CC(C)C)NC(=O)[C@H](C(C)C)NC1=O (cyclo(FLVL[NMeK](Boc))),inhibition of growth at 10 µM,HCT-116 [1],58%
CC(C)C[C@@H]1NC(=O)[C@H](C(C)C)NC(=O)[C@@H](Cc2ccccc2)N(C)C(=O)[C@H](Cc2ccccc2)NC(=O)[C@@H](CC(C)C)N(C)C1=O,inhibition of growth at 10 µM,HCT-116 [1],47%
CC(C)C[C@@H]1NC(=O)[C@H](C(C)C)NC(=O)[C@@H](CC(C)C)NC(=O)[C@@H](Cc2ccccc2)NC(=O)[C@H](CC(C)C)N(C)C1=O,inhibition of growth at 10 µM,HCT-116 [1],15%
CC(C)C[C@@H]1NC(=O)[C@H](C(C)C)NC(=O)[C@@H](Cc2ccccc2)N(C)C(=O)[C@H](Cc2ccccc2)NC(=O)[C@H](CCCCN)NC1=O (cyclo(F[dNMeF]VLK)),inhibition of growth at 10 µM,HCT-116 [1],0%
CC(C)C[C@@H]1NC(=O)[C@H](CC(C)C)NC(=O)[C@H](C(C)C)NC(=O)[C@H](CC(C)C)NC(=O)[C@H](Cc2ccccc2)NC1=O,IC50,HCT-116 [4],19.7 µM
CC(C)C[C@@H]1NC(=O)[C@H](CC(C)C)NC(=O)[C@H](C(C)C)NC(=O)[C@@H](Cc2ccccc2)N(C)C(=O)[C@H](Cc2ccccc2)NC1=O,inhibition of growth at 10 µM,HCT-116 [1],99%
CC(C)C[C@@H]1NC(=O)[C@H](CC(C)C)NC(=O)[C@H](C(C)C)NC(=O)[C@H](CC(C)C)NC(=O)[C@@H](Cc2ccccc2)NC1=O,inhibition of growth at 10 µM,HCT-116 [1],26%
CC(C)[C@H]1NC(=O)[C@@H](Cc2ccccc2)N(C)C(=O)[C@H](Cc2ccccc2)NC(=O)[C@H](COCc2ccccc2)NC(=O)[C@H](CC2CCCCC2)NC1=O (cyclo([Cha]S(Bn)F[dNMeF][dV])),inhibition of growth at 10 µM,HCT-116 [1],93%
same,solubility,[3],< 5 µM
same,inhibition,[6],Active
same,inhibition,[7],Active
same,IC50,HCT-116 [4],≤ 1.9 µM
CC(C)C[C@@H]1NC(=O)[C@@H](CC(C)C)NC(=O)[C@@H](C(C)C)NC(=O)[C@H](CC(C)C)N(C)C(=O)[C@H](Cc2ccccc2)NC1=O,inhibition of growth at 10 µM,HCT-116 [1],30%
CC(C)C[C@@H]1NC(=O)[C@H](Cc2ccccc2)NC(=O)[C@@H](Cc2ccccc2)NC(=O)[C@@H](CC(C)C)NC(=O)[C@H](C(C)C)NC1=O,inhibition of growth at 10 µM,HCT-116 [1],28%
CC(C)C[C@@H]1NC(=O)[C@H](CC(C)C)N(C)C(=O)[C@H](C(C)C)NC(=O)[C@@H](CC(C)C)NC(=O)[C@H](Cc2ccccc2)NC1=O,inhibition of growth at 10 µM,HCT-116 [1],3%
CC(C)C[C@@H]1NC(=O)[C@H]([C@@H](OCc2ccccc2)c2ccccc2)NC(=O)[C@@H](Cc2ccccc2)NC(=O)[C@@H](CC(C)C)NC(=O)[C@H](C(C)C)N(C)C1=O,inhibition of growth at 10 µM,HCT-116 [1],64%
same,IC50,HCT-116 [4],5.8 µM
